Experiments:
[1] = target: Adrenergic receptor beta (Rattus norvegicus, UniProt P18090+P10608+P26255); assay: Inhibition of beta adrenergic receptor isolated from rat ventricle homogenates.
[2] = species: Rattus norvegicus; assay: The compound was tested for percent increase in heart rate with respect to that measured after isoprenaline in 5-10 animals.; type: functional
[3] = target: T1, Adrenergic receptor alpha-1 (Rattus norvegicus, UniProt P15823+P23944+P43140); assay: Inhibition of alpha-1 adrenergic receptor isolated from rat ventricle homogenates
T1 sequence (P15823 whole entry): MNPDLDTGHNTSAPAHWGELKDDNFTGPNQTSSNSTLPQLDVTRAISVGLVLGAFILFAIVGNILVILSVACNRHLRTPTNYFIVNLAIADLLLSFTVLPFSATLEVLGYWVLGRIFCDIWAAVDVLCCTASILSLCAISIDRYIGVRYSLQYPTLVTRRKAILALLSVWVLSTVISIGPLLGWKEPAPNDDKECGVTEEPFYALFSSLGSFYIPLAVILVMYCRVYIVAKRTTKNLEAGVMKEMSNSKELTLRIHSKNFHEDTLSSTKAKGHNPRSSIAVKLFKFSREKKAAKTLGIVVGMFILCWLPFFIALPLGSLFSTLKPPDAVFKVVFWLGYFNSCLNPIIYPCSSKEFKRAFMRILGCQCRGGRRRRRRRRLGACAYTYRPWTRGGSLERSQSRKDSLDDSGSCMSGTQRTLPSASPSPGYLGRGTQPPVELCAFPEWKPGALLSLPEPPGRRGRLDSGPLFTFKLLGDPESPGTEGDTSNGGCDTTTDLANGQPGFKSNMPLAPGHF
T1 sequence (P23944 whole entry): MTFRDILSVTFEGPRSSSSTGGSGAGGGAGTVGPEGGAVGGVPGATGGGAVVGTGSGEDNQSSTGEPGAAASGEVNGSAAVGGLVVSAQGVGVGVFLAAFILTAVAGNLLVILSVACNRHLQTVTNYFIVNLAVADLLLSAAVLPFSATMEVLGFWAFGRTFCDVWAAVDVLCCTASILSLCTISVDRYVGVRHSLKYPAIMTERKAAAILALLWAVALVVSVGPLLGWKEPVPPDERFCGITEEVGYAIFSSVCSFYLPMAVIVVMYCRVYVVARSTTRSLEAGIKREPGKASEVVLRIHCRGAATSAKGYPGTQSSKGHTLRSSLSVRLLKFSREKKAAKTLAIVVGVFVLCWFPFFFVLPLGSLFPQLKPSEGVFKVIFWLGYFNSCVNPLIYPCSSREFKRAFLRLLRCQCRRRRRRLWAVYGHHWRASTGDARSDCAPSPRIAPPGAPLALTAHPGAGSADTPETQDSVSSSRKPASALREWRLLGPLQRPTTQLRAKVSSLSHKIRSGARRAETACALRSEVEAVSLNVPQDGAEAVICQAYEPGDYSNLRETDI
T1 sequence (P43140 whole entry): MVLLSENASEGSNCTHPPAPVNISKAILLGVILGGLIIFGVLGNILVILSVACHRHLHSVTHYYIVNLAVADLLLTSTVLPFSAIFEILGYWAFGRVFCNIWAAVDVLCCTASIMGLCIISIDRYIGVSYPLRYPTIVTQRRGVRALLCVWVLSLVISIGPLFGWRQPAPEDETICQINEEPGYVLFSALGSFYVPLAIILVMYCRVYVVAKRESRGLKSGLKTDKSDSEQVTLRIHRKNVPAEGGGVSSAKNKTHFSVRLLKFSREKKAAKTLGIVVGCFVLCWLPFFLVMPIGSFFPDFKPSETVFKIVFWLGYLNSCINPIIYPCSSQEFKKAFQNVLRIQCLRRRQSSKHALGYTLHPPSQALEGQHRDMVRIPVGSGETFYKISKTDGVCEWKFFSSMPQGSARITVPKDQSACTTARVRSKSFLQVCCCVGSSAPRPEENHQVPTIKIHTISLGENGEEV

[4] = species: Cavia porcellus; assay: Ionotropic effect in electrically driven left atrial preparation (Atria isolated from guinea pig) and is expressed in pA2.; conditions: Cardiac atrium, read-out: pA2 (converted)
[5] = tested on: Rattus norvegicus; assay: Tested for MED (smallest dose giving maximum effect) evaluated by dose-response curve, from 0.1 to 5 mg/kg in 5-10 animals on iv administration.; type: functional; conditions: dose mg/kg 0.1-5
[6] = target: Adrenergic receptor beta (Rattus norvegicus) (UniProt P18090+P10608+P26255)
Description: In vitro inhibitory specificity for Beta adrenergic receptor was evaluated

[7] = species: Cavia porcellus; assay: Chronotropic effect studied in right atria isolated from guinea pig and is expressed in pA2.; conditions: read-out: pA2 (converted)
[8] = species: Rattus norvegicus; assay: The compound was tested for percent increase in heart rate with respect to that measured after isoprenaline in 5-10 animals and showing significant increase (p <= 0.05) with respect to baseline values (293 +/- 7 to 310 +/- 5 […]).; type: functional

| Compound | IC50 [1] [µM] | Increase [2] [%] | IC50 [3] [µM] | Kb [4] [µM] | MED [5] [µmol/kg] | Specificity [6] | Kb [7] [µM] | Increase [8] [%] |
| --- | --- | --- | --- | --- | --- | --- | --- | --- |
| OC(CNc1ccccc1-c1ccccc1)CON=C(C1CC1)C1CC1 (stereo unspecified) | 0.998 | 0 | > 100 | 25.1 | > 12.9 | > 100 | 100 | – |
| Cc1cccc(NCC(O)CON=C(C2CC2)C2CC2)n1 (stereo unspecified) | – | – | – | – | – | – | 10 | – |
| OC(CNc1nc2ccccc2s1)CON=C(C1CC1)C1CC1 (stereo unspecified) | 0.0034 | 10 | > 100 | 0.0251 | 4.1 | > 29400 | 0.0158 | – |
| OC(CNc1ccccc1)CON=C(C1CC1)C1CC1 (stereo unspecified) | 0.0033 | 10 | 13 | 0.126 | 2.7 | 3940 | 0.0398 | – |
| OC(CNc1ccc(Br)cc1)CON=C(C1CC1)C1CC1 (stereo unspecified) | 0.0041 | 10 | 19 | 0.1 | 2.1 | 4630 | 0.02 | – |
| Cc1ccc(NCC(O)CON=C(C2CC2)C2CC2)nc1 (stereo unspecified) | – | – | – | – | – | – | 25.1 | – |
| OC(CNc1ccc(C(F)(F)F)cc1)CON=C(C1CC1)C1CC1 (stereo unspecified) | 0.0138 | – | > 100 | 0.126 | 2.2 | > 7250 | 0.0631 | 47 |
| O=[N+]([O-])c1ccc(NCC(O)CON=C(C2CC2)C2CC2)cc1 (stereo unspecified) | 0.0079 | 10 | 19 | 0.251 | 1.8 | 2400 | 0.1 | – |
| O=C(O)c1ccc(NCC(O)CON=C(C2CC2)C2CC2)cc1 (stereo unspecified) | 0.01 | – | 37.3 | 0.631 | 2.3 | 3570 | 0.1 | 65 |
| CCCCc1ccc(NCC(O)CON=C(C2CC2)C2CC2)cc1 (stereo unspecified) | 0.007 | 10 | 30.7 | 0.251 | 2.7 | 4390 | 0.0794 | – |
| OC(CNc1ccc(Cl)cc1)CON=C(C1CC1)C1CC1 (stereo unspecified) | 0.0114 | – | 18.7 | 0.126 | 2.1 | 1640 | 0.0398 | 47 |
| Cc1ccccc1NCC(O)CON=C(C1CC1)C1CC1 (stereo unspecified) | 0.013 | – | 22 | 0.251 | 5.3 | 1690 | 0.126 | 37 |
| CCOC(=O)c1ccc(NCC(O)CON=C(C2CC2)C2CC2)cc1 (stereo unspecified) | 0.0128 | 10 | 95.1 | 0.251 | 2.4 | 7430 | 0.0794 | – |
| OC(CNc1ccc(I)cc1)CON=C(C1CC1)C1CC1 (stereo unspecified) | 0.0041 | – | 27.5 | 0.0631 | 1.6 | 6700 | 0.0158 | 64 |
| OC(CNc1ccc(F)cc1)CON=C(C1CC1)C1CC1 (stereo unspecified) | 0.0124 | – | 26.2 | 1.26 | 2.4 | 2120 | 0.631 | 74 |
| OC(CNc1ccc(-c2ccccc2)cc1)CON=C(C1CC1)C1CC1 (stereo unspecified) | 0.0045 | – | 3.1 | 0.0398 | 1 | 690 | 0.01 | 70 |
| Cc1cccc(NCC(O)CON=C(C2CC2)C2CC2)c1 (stereo unspecified) | 0.501 | – | > 100 | 0.126 | 9.2 | > 200 | 0.1 | 42 |
| OC(CNc1ccccc1I)CON=C(C1CC1)C1CC1 (stereo unspecified) | 0.108 | 10 | 53 | 2.51 | 5.7 | 490 | 1.26 | – |
| Cc1ccnc(NCC(O)CON=C(C2CC2)C2CC2)c1 (stereo unspecified) | 0.0239 | 0 | 15.3 | 0.0794 | 2.6 | 640 | 0.0316 | – |
| OC(CNc1ccccn1)CON=C(C1CC1)C1CC1 (stereo unspecified) | 0.0356 | 0 | 36.4 | 0.0631 | 4.4 | 1020 | 0.0794 | – |
| CC(C)(N)Cc1ccc(NCC(O)CON=C(C2CC2)C2CC2)cc1 (stereo unspecified) | – | – | – | – | – | – | 0.501 | – |
| OC(CNc1nc2ccccc2[nH]1)CON=C(C1CC1)C1CC1 (stereo unspecified) | 0.0132 | 10 | > 100 | 0.1 | 2 | > 7580 | 0.0631 | – |
| CC(C)NCC(O)COc1cccc2ccccc12 (stereo unspecified) [PROPRANOLOL] | – | 0 | – | – | 3 | – | – | – |
| OC(CNc1ccncc1)CON=C(C1CC1)C1CC1 (stereo unspecified) | 0.0323 | 0 | 72.3 | 0.251 | 3.7 | 2240 | 0.0631 | – |
| CN(CC(O)CON=C(C1CC1)C1CC1)c1ccccc1 (stereo unspecified) | – | – | – | – | – | – | 794 | – |

From ChEMBL document CHEMBL1131212, “Synthesis and adrenergic activity of a new series of N-aryl dicyclopropyl ketone oxime ethers: SAR and stereochemical aspects” (J Med Chem, 1998)
